Measurements: patent publication US12559474B2, “Triazine derivatives having virus replication inhibitory activity and pharmaceutical composition comprising the same” (priority 2021, dated 2026)
Like-named read-outs stand apart in the source and are kept apart here.

Assays:
SARS-CoV-2 = test: microbe, parasite or virus in culture; type: cell-based; details: 50% SARS-CoV-2 infected cell death inhibitory concentration, VeroE6/TMPRSS2 cells, 3 days culture
SARS-CoV-2 3CL protease = SARS-CoV-2 3CL protease (Severe acute respiratory syndrome coronavirus 2, UniProt P0DTD1); test: biochemical; details: 50% SARS-CoV-2 3CL protease inhibitory concentration, read-out: IC50
[1] = Severe acute respiratory syndrome coronavirus 2, VeroE6/TMPRSS2, 72 h, class symbols
[2] = Severe acute respiratory syndrome coronavirus 2, VeroE6/TMPRSS2, 72 h, CellTiter-Glo 2.0

SMILES	EC50 (SARS-CoV-2; [1])	IC50 (SARS-CoV-2 3CL protease; given as class symbols)	EC50 (SARS-CoV-2; [2])	IC50 (SARS-CoV-2 3CL protease; RapidFire MS)	EC50 (SARS-CoV-2; class symbols)
Cn1cnc(Cn2c(=O)nc(Nc3cc4cn(C)nc4cc3Cl)n(Cc3ccc(F)c(F)c3F)c2=O)n1 [II-0190]	1000 to 10000 nM	< 100 nM	–	–	–
Cn1cc2cc(Nc3nc(=O)n(-c4cncc(Cl)c4)c(=O)n3Cc3cc(F)c(F)c(F)c3)ccc2n1 [II-0609]	–	–	2040 nM	120 nM	–
CCNC(=O)Cn1c(=O)nc(Nc2cc3cn(C)nc3cc2Cl)n(Cc2cc(F)c(F)c(F)c2)c1=O [II-0329]	–	–	11500 nM	140 nM	–
Cn1cnc(Cn2c(=O)cc(Nc3cc4cn(CC(F)F)nc4cc3Cl)n(Cc3cc(F)c(F)c(F)c3)c2=O)n1 [II-0429]	1000 to 10000 nM	< 100 nM	–	–	–
COc1ccc(Nc2nc(=O)n(Cc3cc(N4CCCC4)c[nH]c3=O)c(=O)n2Cc2cc(F)c(F)c(F)c2)cc1 [II-0014]	–	–	22100 nM	2400 nM	–
Cn1cnc(Cn2c(=O)nc(Nc3cc4c(cc3Cl)nc3n4CCN3)n(Cc3cc(Cl)c(F)cc3F)c2=O)n1 [II-0522]	–	–	15000 nM	4.1 nM	–
CNc1ccnc(Cn2c(=O)nc(Nc3cc4cn(C)nc4cc3Cl)n(Cc3cc(F)c(F)cc3F)c2=O)n1 [II-0253]	1000 to 10000 nM	< 100 nM	–	–	–
COc1ccc(Nc2nc(=O)n(Cc3cc(Br)c[nH]c3=O)c(=O)n2Cc2cc(F)c(F)c(F)c2)cc1 [Compound I-0310]	1000 to 10000 nM	< 100 nM	–	–	–
Cn1cc2cc(Nc3nc(=O)n(-c4cncc(C5CC5)c4)c(=O)n3Cc3ccc(F)c(C#N)c3)c(Cl)cc2n1 [II-0261]	< 1000 nM	< 100 nM	–	–	–
Cn1cnc(Cn2c(=O)nc(Nc3cc4sc(N)nc4cc3Cl)n(Cc3cc(Cl)c(F)cc3F)c2=O)n1 [II-0529]	< 1000 nM	< 100 nM	–	–	–
Cn1cnc(Cn2c(=O)nc(Nc3cc4cn(CC(C)(C)O)nc4cc3Cl)n(Cc3cc(F)c(F)c(Cl)c3)c2=O)n1 [II-0305]	1000 to 10000 nM	< 100 nM	–	–	–
Cc1cncc(-n2c(=O)nc(Nc3cc4cn(C)nc4cc3Cl)n(Cc3cc(F)c(F)c(C#N)c3)c2=O)c1 [II-0130]	–	–	95 nM	1.9 nM	–
CC(C)n1cc2cc(Nc3nc(=O)n(-c4cncc5ccccc45)c(=O)n3Cc3ccc(F)c(C#N)c3)ccc2n1 [II-0168]	< 1000 nM	< 100 nM	–	–	–
CNc1nc2ccc(Nc3nc(=O)n(-c4cncc(C)c4)c(=O)n3Cc3cc(C#N)c(F)cc3C)cc2s1 [II-0420]	< 1000 nM	< 100 nM	–	–	–
CCc1cc(F)c(F)cc1Cn1c(Nc2cc3cn(C)nc3cc2Cl)nc(=O)n(-c2cncc(C)c2)c1=O [II-0068]	< 1000 nM	< 100 nM	–	–	–
Cn1cc2cc(Nc3nc(=O)n(Cc4ccc[nH]c4=O)c(=O)n3Cc3cc(F)c(F)c(C#N)c3)c(Cl)cc2n1 [Compound I-0012]	1000 to 10000 nM	< 100 nM	–	–	–
CNc1nc2ccc(Nc3nc(=O)n(Cc4ccc[nH]c4=O)c(=O)n3Cc3cc(F)c(F)c(F)c3)cc2s1 [Compound I-0460]	1000 to 10000 nM	< 100 nM	–	–	–
Cn1cc2cc(Nc3nc(=O)n(-c4cncc(C#N)c4)c(=O)n3Cc3cc(Cl)c(F)cc3F)c(Cl)cc2n1 [II-0485]	< 1000 nM	< 100 nM	–	–	–
C=Cc1cc(Cn2c(Nc3cc4cn(C)nc4cc3Cl)nc(=O)n(-c3cncc(C)c3)c2=O)ccc1F [II-0587]	< 1000 nM	< 100 nM	–	–	–
O=c1[nH]cccc1Cn1c(=O)nc(Nc2cc3cn(CCOC(F)(F)F)nc3cc2Cl)n(Cc2cc(F)c(F)c(F)c2)c1=O [Compound I-0381]	1000 to 10000 nM	< 100 nM	–	–	–
Cn1cnc(Cn2c(=O)nc(Nc3cc4cn(CC(F)F)nc4cc3F)n(Cc3cc(F)c(F)c(F)c3)c2=O)n1 [II-0112]	1000 to 10000 nM	< 100 nM	–	–	–
Cc1cncc(-n2c(=O)nc(Nc3cc4cn(C)nc4cc3Cl)n(Cc3cc(F)c(F)cc3OCC3CCC3)c2=O)c1 [II-0551]	< 1000 nM	< 100 nM	–	–	–
COc1ccc(Nc2nc(=O)n(Cc3cc(C)n[nH]c3=O)c(=O)n2Cc2cc(F)c(F)c(F)c2)c(Cl)c1 [II-0084]	< 1000 nM	< 100 nM	–	–	–
CNc1nc2ccc(Nc3nc(=O)n(-c4cncc(C)c4)c(=O)n3Cc3cc(C#N)ccc3C)cc2s1 [II-0496]	< 1000 nM	< 100 nM	–	–	–
Cc1cncc(-n2c(=O)nc(Nc3cc4c(cc3Cl)OC(C)C4)n(Cc3ccc(F)c(C#N)c3)c2=O)c1 (centres unmarked) [II-0121]	–	< 100 nM	–	–	< 1000 nM
Cn1cnc(Cn2c(=O)nc(Nc3cc4cn(C)nc4cc3Cl)n(Cc3cc(F)c(F)c(F)c3)c2=O)c1 [Compound I-0426]	–	–	1030 nM	6.3 nM	–
Cn1cnc(Cn2c(=O)nc(Nc3cc4c(C5CC5)n(C)nc4cc3Cl)n(Cc3cc(F)c(F)cc3F)c2=O)n1 [II-0446]	1000 to 10000 nM	< 100 nM	–	–	–
O=C1CC=CC=C1Cn1c(=O)nc(Nc2cc3cn(C4CCOCC4)nc3cc2Cl)n(Cc2cc(F)c(F)c(F)c2)c1=O [Compound I-0451]	1000 to 10000 nM	< 100 nM	–	–	–
